Measured values: patent publication US20230098403A1, “MAGNETIC RESONANCE IMAGING CONTRAST AGENT, PREPARATION METHOD AND USE THEREOF” (GUANGZHOU PINGLAN MEDICAL TECHNOLOGY CO., LTD., priority 2020, published 2023)

Tests used:
[1] = tested on: QSG7701 hepatocyte line; test: Hepatocyte toxicity test (MTT); type: cell-based, human
Procedure: One or two days later, when the cell density meet the requirements of passage (the cell growth rate reaches 80-90%), the cells were washed 1 to 2 times with PBS, and then PBS was removed and 1 mL trypsin was added to completely cover the surface of the cells for 1 to 2 minutes, followed by observing under an inverted microscope. When more than 90% of the cells have become large and round and could be shaken gently to remove a little, complete medium (DMEM medium:FBS:antibiotic=100:10:1) was immediately added to stop digestion. The cells were blow and separated, transferred to a 15 mL centrifuge tube, which was centrifuged at 1000 rpm for 5 min at room temperature, then the supernatant was removed. The cells were transferred to a […] petri dish, 5 to 10 ml fresh complete medium was added for further culture. Culture medium was changed after 2-3 days or subcultured in a ratio of 1:2 and 1:3.
2) Cryopreservation: when the cells were in the logarithmic growth phase and the growth state was good, cryopreservation was selected and a cryopreservation solution (DMEM:FBS:DMSO=6:3:1) was prepared as above, the cells were collected after stopping digestion and centrifuging in a centrifuge tube. The cells were suspended in the cryopreservation solution, the cell concentration (lx 10^6/mL to 10×10^6/mL) were adjusted and then the cells were divided into cryopreservation tubes, the cell type, date, cryopreserved person, and passage times were recorded. The tubes were placed in a gradient freezer box in a −80° C. freezer and transferred to a liquid nitrogen tank for storage the next day.
3) Cell recovery: a cryovial containing QSG7701 was taken out from the liquid nitrogen tank and put in a 37° C. water bath for 1 to 2 minutes and shaken quickly to thaw. The thawed cell fluid was transferred to a 15 mL centrifuge tube, centrifuged at 1000 rpm for 5 min at room temperature, then the supernatant was removed, and 5 to 10 mL fresh complete culture medium was added into it, the cell type, date, and the name of the culture person were recorded, the cells were cultured in a 37° C. incubator with 5% CO2. […]
4) Finally, the 96-well plate was taken out, the medium was removed, and 100 μl DMSO was added to the plate, shaken horizontally and mixed for 2-3 minutes to fully dissolve the crystals, and the OD value was read at the detection line of 595 nm with a microplate reader.
Origin 9.0 software was used for data mapping, and measurement data were expressed as mean±standard deviation (±sd); SPSS14.0 statistical software was used for data statistics, and univariate analysis was used.

[2] = In vivo imaging in rats (3.0 T MRI); conditions: SD rats, 0.2 mmol/kg tail vein
Procedure: 1. Sixteen SD rats were divided into a KBR0826 contrast agent group (experimental group) and a gadoteric acid meglumine (Gd-DOTA) contrast agent group (control group), with 8 rats in each group, fasted for 12 hours (drank water freely).
2. 3% sodium pentobarbital (60 to 70 mg/kg) was weighed for intraperitoneal anesthesia.
3. The dosage of KBR0826 was 0.2 mmol/kg. SD rats were imaged in vivo with a 3.0 T MRI imager. Contrast agents were injected into the tail vein. The signal intensities (SI) of the heart, liver, brain parenchyma, muscle, and abdominal aorta in rats were measured before and after injection, and signal to noise ratio (SNR) was calculated and time-signal intensity curve was drawn to evaluate the imaging effect of the contrast agents.

O=C([O-])CN(CP(=O)([O-])O)C1CCCCC1N(CC(=O)[O-])CP(=O)([O-])O.[Mn+2].[Na+].[Na+] (stereo not shown) [KBR0826]
survival rate of the QSG7701 hepatocyte line ([1]; 0.02 mmol/L, 0.1 mmol/L or 0.5 mmol/L, each detection time point (6 h, 12 h, 24 h, 48 h), MTT, OD 595 nm): does not decrease significantly
survival rate of the QSG7701 hepatocyte line ([1]; 2.5 mmol/L, 24 h and 48 h, p<0.05): decrease significantly
survival rate of the QSG7701 hepatocyte line ([1]; 12.5 mmol/L, at 12 h, p<0.05): decreases significantly
inhibitory effect on the proliferation of QSG7701 hepatocyte line ([1]; within 24 hours, 25 times of the clinical dose (2.5 mmol/L)): non-obvious inhibitory effect
excretion seen by imaging [2]: could be excreted through the kidneys and intestines
liver enhancement [2]: obvious and continuous
passage through the blood-brain barrier [2]: could not pass through the normal blood-brain barrier
